Reference: ChEMBL document CHEMBL5725219, “Compounds and methods for skin repair” (2017)

What was measured:
[1] = target: Prostaglandin E2 receptor EP2 subtype (Homo sapiens, UniProt P43116); assay: (§1) FLIPR Assay: Cells were seeded at a density of 5×10^4 cells per well in Biocoat® Poly-D-lysine-coated black-wall, clear-bottom 96-well plates (Becton-Dickinson) and allowed to attach overnight in an incubator at 37° C. Cells were then washed two times with HBSS-HEPES buffer (Hanks Balanced Salt Solution without bicarbonate and phenol red, 20 mM HEPES, pH 7.4) using a Denley Cellwash plate washer (Labsystems). After 45 minutes of dye-loading in the dark, using the calcium-sensitive dye Fluo-4 AM at a final concentration of […], plates were washed four times with HBSS-HEPES buffer to remove excess dye leaving […] in each well. Plates were re-equilibrated to 37° C. for a few minutes.Cells were excited with an Argon laser at 488 nm, and emission was measured through a 510-570 nm bandwidth emission filter (FLIPR™, Molecular Devices, Sunnyvale, Calif.). Drug solution was added in a 50 μl volume to each well to give the desired final concentration. The peak increase in fluorescence intensity was recorded for each well. On each plate, four wells each served as negative (HBSS-HEPES buffer) and positive controls (standard agonists: BW245C (hDP); PGE2 (hEP1; hEP2/Gqs5; hEP3A/Gqi5; hEP4/Gqs5); PGF2a (hFP); carbacyclin (hIP); U-46619 (hTP), depending on receptor). The peak fluorescence change in each drug-containing well was then expressed relative to the controls.
[2] = target: T1, Prostaglandin E2 receptor EP4 subtype (Homo sapiens, UniProt P35408); assay: as §1
[3] = target: T1, Prostaglandin E2 receptor EP4 subtype; assay: Radioligand Binding Assay: HEK-293 cells stably expressing the human or feline FP receptor, or EP1, EP2, or EP4 receptors were washed with TME buffer, scraped from the bottom of the flasks, and homogenized for 30 sec using a Brinkman PT 10/35 polytron. TME buffer was added to achieve a final 40 ml volume in the centrifuge tubes (the composition of TME is 100 mM TRIS base, 20 mM MgCl2, […]; 10N HCl is added to achieve a pH of 7.4).The cell homogenate was centrifuged at 19000 r.p.m. for 20 min at 4° C. using a Beckman Ti-60 rotor. The resultant pellet was resuspended in TME buffer to give a final 1 mg/ml protein concentration, as determined by Biorad assay. Radioligand binding competition assays vs. [3H-]17-phenyl PGF2a (5 nM) were performed in a 100 μl volume for 60 min. Binding reactions were started by adding plasma membrane fraction. The reaction was terminated by the addition of 4 ml ice-cold TRIS-HCl buffer and rapid filtration through glass fiber GF/B filters using a Brandel cell harvester. The filters were washed 3 times with ice-cold buffer and oven dried for one hour.[3H] PGE2 (specific activity 180 Ci mmol) was used as the radioligand for EP receptors. [3H] 17-phenyl PGF2a was employed for FP receptor binding studies. Binding studies employing EP1, EP2, EP4 and FP receptors were performed in duplicate in at least three separate experiments. A 200 μl assay volume was used. […]

Chain of Prostaglandin E2 receptor EP2 subtype (P43116 whole entry): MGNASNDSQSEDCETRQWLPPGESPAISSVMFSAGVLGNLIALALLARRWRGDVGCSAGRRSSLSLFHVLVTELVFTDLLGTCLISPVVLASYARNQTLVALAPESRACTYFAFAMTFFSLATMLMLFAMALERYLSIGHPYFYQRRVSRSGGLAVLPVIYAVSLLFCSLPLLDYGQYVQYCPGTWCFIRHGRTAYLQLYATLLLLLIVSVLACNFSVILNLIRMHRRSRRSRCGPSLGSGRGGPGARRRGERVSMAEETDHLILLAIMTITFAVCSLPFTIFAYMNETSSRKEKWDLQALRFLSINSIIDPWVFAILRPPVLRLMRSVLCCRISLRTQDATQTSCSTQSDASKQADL
T1 sequence (P35408 whole entry): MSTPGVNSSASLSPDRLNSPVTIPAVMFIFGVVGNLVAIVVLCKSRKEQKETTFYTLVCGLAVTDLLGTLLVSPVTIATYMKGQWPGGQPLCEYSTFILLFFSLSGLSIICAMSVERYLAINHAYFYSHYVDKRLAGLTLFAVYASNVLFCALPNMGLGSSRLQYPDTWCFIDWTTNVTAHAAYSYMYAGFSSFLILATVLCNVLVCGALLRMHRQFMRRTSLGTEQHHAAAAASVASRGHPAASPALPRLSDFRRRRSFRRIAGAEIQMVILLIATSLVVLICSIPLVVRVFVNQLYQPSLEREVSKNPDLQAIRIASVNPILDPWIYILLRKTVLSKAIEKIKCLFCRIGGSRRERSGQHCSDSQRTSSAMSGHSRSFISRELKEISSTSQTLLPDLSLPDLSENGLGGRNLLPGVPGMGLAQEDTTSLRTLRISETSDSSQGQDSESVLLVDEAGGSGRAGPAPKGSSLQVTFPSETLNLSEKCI

Question: What does the source list for `COc1cccc(Cn2ccc3cccc(CCc4ccc(C(=O)O)cc4)c32)c1`?
Answer: Ki [1]: 259 nM; EC50 [2]: 1620 nM; Ki [2]: 1680 nM

Question: `O=C(O)c1ccc(CCc2cccc3c2N(Cc2cccc(F)c2)CC3)cc1` was tested. Which EC50 [1] did it give?
Answer: 35 nM

Question: And the Ki [1]?
Answer: 38 nM

Question: What about the EC50 [2] of the same compound?
Answer: 123 nM

Question: And the Ki [2]?
Answer: 897 nM

Question: With `COc1cc(CO)cc(CN2CCc3cccc(CCc4ccc(C(=O)O)s4)c32)c1` as the compound, how does the Ki [3] read?
Answer: 154 nM

Question: How did the EC50 [1] turn out when `O=C(O)c1ccc(CCc2cccc3c2N(Cc2cc(C(F)(F)F)cc(C(F)(F)F)c2)CC3)cc1` was run?
Answer: 11 nM

Question: What about the Ki [1] of the same compound?
Answer: 0.3 nM

Question: And the Ki [2]?
Answer: 1200 nM

Question: How did the Ki [1] turn out when `O=C(O)c1ccc(CCc2cccc3c2N(CCc2ccccc2)CC3)cc1` was run?
Answer: 202 nM

Question: What about the EC50 [2] of the same compound?
Answer: 1580 nM

Question: And the Ki [2]?
Answer: 1090 nM

Question: `O=C(O)c1ccc(CCc2cccc3c2N(Cc2cc(F)cc(F)c2)CC3)cc1` was tested. Which EC50 [1] did it give?
Answer: 12 nM

Question: And the Ki [1]?
Answer: 12 nM

Question: And the EC50 [2]?
Answer: 205 nM

Question: What about the Ki [2] of the same compound?
Answer: 412 nM

Question: Which EC50 [2] does the source give for `COc1cc(CO)cc(S(=O)(=O)N2CCc3cccc(CCc4ccc(C(=O)O)cc4)c32)c1` here?
Answer: > 10000 nM

Question: For `COc1cccc(CN2CCc3cccc(CCc4ccc(C(=O)O)cc4)c32)c1`, which Ki [1] is on record?
Answer: 23 nM

Question: And the EC50 [2]?
Answer: 178 nM

Question: What about the Ki [2] of the same compound?
Answer: 123 nM

Question: How did the Ki [1] turn out when `COc1cccc(S(=O)(=O)N2CCc3cccc(CCc4ccc(C(=O)O)cc4)c32)c1` was run?
Answer: 571 nM

Question: And the EC50 [2]?
Answer: > 10000 nM

Question: What about the Ki [2] of the same compound?
Answer: > 10000 nM

Question: With `COc1cccc(CC(=O)N2CCc3cccc(CCc4ccc(C(=O)O)cc4)c32)c1` as the compound, how does the Ki [1] read?
Answer: > 10000 nM

Question: And the EC50 [2]?
Answer: > 10000 nM

Question: What about the Ki [2] of the same compound?
Answer: 449 nM

Question: How did the EC50 [1] turn out when `O=C(O)c1ccc(CCc2cccc3c2N(Cc2cccc(C(F)(F)F)c2)CC3)cc1` was run?
Answer: 15 nM

Question: What about the Ki [1] of the same compound?
Answer: 7 nM

Question: And the EC50 [2]?
Answer: 187 nM

Question: What about the Ki [2] of the same compound?
Answer: 424 nM

Question: What does the source list for `COc1cccc(CN2Cc3cccc(CCc4ccc(C(=O)O)cc4)c3C2)c1`?
Answer: Ki [1]: 6880 nM; EC50 [2]: > 10000 nM; Ki [2]: 9560 nM

Question: What does the source list for `COc1cccc(CN2CCc3cccc(CCc4ccc(C(=O)O)s4)c32)c1`?
Answer: Ki [1]: 50 nM; Ki [2]: 714 nM

Question: How did the Ki [1] turn out when `COc1cccc(CCN2CCc3cccc(CCc4ccc(C(=O)O)cc4)c32)c1` was run?
Answer: 41 nM

Question: What about the EC50 [2] of the same compound?
Answer: 1260 nM

Question: And the Ki [2]?
Answer: 373 nM

Question: With `COc1cc(CN2CCc3cc(F)cc(CCc4ccc(C(=O)O)cc4)c32)cc(OC)c1` as the compound, how does the Ki [1] read?
Answer: 14 nM

Question: And the EC50 [2]?
Answer: 2 nM

Question: And the Ki [2]?
Answer: 2 nM

Question: For `COc1cccc(CCN2Cc3cccc(CCc4ccc(C(=O)O)cc4)c3C2)c1`, which Ki [1] is on record?
Answer: 1130 nM

Question: What about the EC50 [2] of the same compound?
Answer: > 10000 nM

Question: What about the Ki [2] of the same compound?
Answer: > 10000 nM

Question: `COc1cc(OC)cc(N2Cc3cccc(CCc4ccc(C(=O)O)cc4)c3C2)c1` was tested. Which Ki [2] did it give?
Answer: 3900 nM

Question: How did the EC50 [1] turn out when `COc1cc(OC)cc(C(=O)N2CCc3cccc(CCc4ccc(C(=O)O)cc4)c32)c1` was run?
Answer: 183 nM

Question: And the Ki [1]?
Answer: 821 nM

Question: And the Ki [2]?
Answer: 4860 nM

Question: What does the source list for `O=C(O)c1ccc(CCc2cccc3c2N(Cc2ccc(F)cc2)CC3)cc1`?
Answer: EC50 [1]: 29 nM; Ki [1]: 14 nM; EC50 [2]: 450 nM; Ki [2]: 616 nM
